Structures can show the parent of a compound that is named as a salt.
Legend:
Assay type in all cases: in vivo
[1] = tested on: glyphosate-resistant corn variety P1690; assay: Foliar spray of corn at V7 stage in outdoor replicated field plots, corn variety P1690 (Example 2, Table 2); conditions: for percent control of glyphosate-resistant corn, 9 DAT / percent control of glyphosate-resistant corn, 16 DAT: variety P1690
Excerpt: (§1) Two varieties of corn were foliarly sprayed with mixtures of ethyl [3-[2-chloro-4-fluoro-5-(1-methyl-6-trifluoromethyl-2,4-dioxo-1,2,3,4-tetrahydropyrimidin-3-yl)phenoxy]-2-pyridyloxy]acetate and the potassium salt of glyphosate in outdoor replicated field plots. In addition, mixtures of ethyl [3-[2-chloro-4-fluoro-5-(1-methyl-6-trifluoromethyl-2,4-dioxo-1,2,3,4-tetrahydropyrimidin-3-yl)phenoxy]-2-pyridyloxy]acetate and glufosinate, and N,N′-dimethyl-4,4′-bipyridinium dichloride alone were foliarly sprayed. One corn variety was glyphosate-resistant and the other variety was both glyphosate and glufosinate resistant. The corn plants were at the V7 (plants with seven leaves with visible collars, about 30 to 40 inches tall) stage of development at the time of treatment. Roundup® PowerMax (available from Monsanto Company) was used as the source of the potassium salt of glyphosate. The adjuvant non-ionic surfactant was applied with ethyl [3-[2-chloro-4-fluoro-5-(1-methyl-6-trifluoromethyl-2,4-dioxo-1,2,3,4-tetrahydropyrimidin-3-yl)phenoxy]-2-pyridyloxy]acetate. The effects of the treatments were observed and recorded 9 and 16 days after the treatments (“9 DAT” and “16 DAT”, respectively).

[2] = tested on: glyphosate-resistant and glufosinate-resistant corn variety 765-30; assay: Foliar spray of corn at V7 stage in outdoor replicated field plots, corn variety 765-30 (Example 2, Table 3); conditions: for percent control of glyphosate-resistant and glufosinate-resistant corn, 9 DAT / percent control of glyphosate-resistant and glufosinate-resistant corn, 16 DAT: variety 765-30
Excerpt: as §1

[3] = tested on: volunteer glyphosate-resistant corn; assay: Foliar spray of glyphosate-resistant corn at V4 stage in outdoor replicated field plots (Example 1)
Excerpt: Glyphosate-resistant corn was foliarly sprayed with mixtures of ethyl [3-[2-chloro-4-fluoro-5-(1-methyl-6-trifluoromethyl-2,4-dioxo-1,2,3,4-tetrahydropyrimidin-3-yl)phenoxy]-2-pyridyloxy]acetate and the potassium salt of glyphosate in outdoor replicated field plots. The corn was at the V4 (plants with four leaves with visible collars, about 6 to 8 inches tall) stage of development at the time of treatment. Roundup® PowerMax (available from Monsanto Company) was used as the source of the potassium salt of glyphosate. The adjuvant crop oil concentrate was applied with ethyl [3-[2-chloro-4-fluoro-5-(1-methyl-6-trifluoromethyl-2,4-dioxo-1,2,3,4-tetrahydropyrimidin-3-yl)phenoxy]-2-pyridyloxy]acetate. The effects of the treatments were observed and recorded 9 and 23 days after the treatments (“9 DAT” and “23 DAT”, respectively).

[4] = Treatment 2, 1.25 g active/hectare
[5] = Treatment 3, 2.5 g active/hectare
[6] = Treatment 4, 5 g active/hectare
[7] = Treatment 5, 10 g active/hectare
[8] = Treatment 6, 20 g active/hectare
[9] = Treatment 7, 30 g active/hectare
[10] = Treatment 3, 5.6 g active/hectare
[11] = Treatment 4, 10.1 g active/hectare
[12] = Treatment 5, 20.2 g active/hectare
[13] = Treatment 6, 30.3 g active/hectare
[14] = Treatment 7, 40.3 g active/hectare
[15] = Treatment 18, 840 g active/hectare
[16] = Treatment 15, 500 g active/hectare
[17] = Treatment 8, 1260 g active/hectare
[18] = Treatment 2, 1054 g active/hectare

CCOC(=O)COc1ncccc1Oc1cc(-n2c(=O)cc(C(F)(F)F)n(C)c2=O)c(F)cc1Cl [ethyl [3-[2-chloro-4-fluoro-5-(1-methyl-6-trifluoromethyl-2,4-dioxo-1,2,3,4-tetrahydropyrimidin-3-yl)phenoxy]-2-pyridyloxy]acetate]
percent control of glyphosate-resistant corn, 9 DAT [1, 4]: 16.15% | percent control of glyphosate-resistant corn, 16 DAT [1, 4]: 25% | percent control of glyphosate-resistant corn, 9 DAT [1, 5]: 49.78% | percent control of glyphosate-resistant corn, 16 DAT [1, 5]: 55% | percent control of glyphosate-resistant corn, 9 DAT [1, 6]: 44.48% | percent control of glyphosate-resistant corn, 16 DAT [1, 6]: 40% | percent control of glyphosate-resistant corn, 9 DAT [1, 7]: 57.6% | percent control of glyphosate-resistant corn, 16 DAT [1, 7]: 42.5% | percent control of glyphosate-resistant corn, 9 DAT [1, 8]: 81.8% | percent control of glyphosate-resistant corn, 16 DAT [1, 8]: 100% | percent control of glyphosate-resistant corn, 9 DAT [1, 9]: 95% | percent control of glyphosate-resistant corn, 16 DAT [1, 9]: 100% | percent control of glyphosate-resistant and glufosinate-resistant corn, 9 DAT [2, 4]: 16.15% | percent control of glyphosate-resistant and glufosinate-resistant corn, 16 DAT [2, 4]: 25% | percent control of glyphosate-resistant and glufosinate-resistant corn, 9 DAT [2, 5]: 49.78% | percent control of glyphosate-resistant and glufosinate-resistant corn, 16 DAT [2, 5]: 52.5% | percent control of glyphosate-resistant and glufosinate-resistant corn, 9 DAT [2, 6]: 42.3% | percent control of glyphosate-resistant and glufosinate-resistant corn, 16 DAT [2, 6]: 40% | percent control of glyphosate-resistant and glufosinate-resistant corn, 9 DAT [2, 7]: 57.6% | percent control of glyphosate-resistant and glufosinate-resistant corn, 16 DAT [2, 7]: 42.5% | percent control of glyphosate-resistant and glufosinate-resistant corn, 9 DAT [2, 8]: 81.8% | percent control of glyphosate-resistant and glufosinate-resistant corn, 16 DAT [2, 8]: 91.3% | percent control of glyphosate-resistant and glufosinate-resistant corn, 9 DAT [2, 9]: 95% | percent control of glyphosate-resistant and glufosinate-resistant corn, 16 DAT [2, 9]: 100% | percent control of volunteer glyphosate-resistant corn, 9 DAT [3, 10]: 68.78% | percent control of volunteer glyphosate-resistant corn, 23 DAT [3, 10]: 6.7% | percent control of volunteer glyphosate-resistant corn, 9 DAT [3, 11]: 95.75% | percent control of volunteer glyphosate-resistant corn, 23 DAT [3, 11]: 87.74% | percent control of volunteer glyphosate-resistant corn, 9 DAT [3, 12]: 99.89% | percent control of volunteer glyphosate-resistant corn, 23 DAT [3, 12]: 99.89% | percent control of volunteer glyphosate-resistant corn, 9 DAT [3, 13]: 100% | percent control of volunteer glyphosate-resistant corn, 23 DAT [3, 13]: 100% | percent control of volunteer glyphosate-resistant corn, 9 DAT [3, 14]: 100% | percent control of volunteer glyphosate-resistant corn, 23 DAT [3, 14]: 100%

C[n+]1ccc(-c2cc[n+](C)cc2)cc1.[Cl-].[Cl-] [N,N′-dimethyl-4,4′-bipyridinium dichloride, reference compound]
percent control of glyphosate-resistant corn, 9 DAT [1, 15]: 84% | percent control of glyphosate-resistant corn, 16 DAT [1, 15]: 77.5% | percent control of glyphosate-resistant and glufosinate-resistant corn, 9 DAT [2, 15]: 81.3% | percent control of glyphosate-resistant and glufosinate-resistant corn, 16 DAT [2, 15]: 92.5%

CP(=O)(O)CCC(N)C(=O)O (stereo not drawn) [Glufosinate, reference compound]
percent control of glyphosate-resistant corn, 9 DAT [1, 16]: 92.7% | percent control of glyphosate-resistant corn, 16 DAT [1, 16]: 100% | percent control of glyphosate-resistant and glufosinate-resistant corn, 9 DAT [2, 16]: 3.8% | percent control of glyphosate-resistant and glufosinate-resistant corn, 16 DAT [2, 16]: 0%

O=C(O)CNCP(=O)(O)O [Glyphosate, potassium salt, reference compound]
percent control of glyphosate-resistant corn, 9 DAT [1, 17]: 0% | percent control of glyphosate-resistant corn, 16 DAT [1, 17]: 0% | activity against glyphosate-resistant corn when applied alone ([1]; applied alone, Table 2, variety P1690): no activity | percent control of glyphosate-resistant and glufosinate-resistant corn, 9 DAT [2, 17]: 0% | percent control of glyphosate-resistant and glufosinate-resistant corn, 16 DAT [2, 17]: 0% | activity against glyphosate-resistant corn when applied alone ([2]; applied alone, Table 3, variety 765-30): no activity | percent control of volunteer glyphosate-resistant corn, 9 DAT [3, 18]: 0% | percent control of volunteer glyphosate-resistant corn, 23 DAT [3, 18]: 0% | activity against glyphosate-resistant corn when applied alone ([3]; applied alone, Table 1): no activity

— patent publication US10045532B2, “Synergistic herbicidal mixtures for glyphosate-resistant volunteer corn control” (Valent U.S.A., Corporation, priority 2015, dated 2018)
